Experimental data from ChEMBL document CHEMBL1201862, “PubChem BioAssay data set” (2004).
Active and inactive are the calls of the source.

Experiments:
[1] = biological target: T1, Nucleotide-binding oligomerization domain-containing protein 1 (Homo sapiens, UniProt Q9Y239); assay: SAR analysis of NF-kappaB dependent luciferase using DAP as an inducer - Set 2. [Related pubchem assays (depositor defined):AID1566, AID1575, AID1578, AID1579, AID1849, AID1852, AID2264]; format: functional
T1 sequence (Q9Y239 whole entry): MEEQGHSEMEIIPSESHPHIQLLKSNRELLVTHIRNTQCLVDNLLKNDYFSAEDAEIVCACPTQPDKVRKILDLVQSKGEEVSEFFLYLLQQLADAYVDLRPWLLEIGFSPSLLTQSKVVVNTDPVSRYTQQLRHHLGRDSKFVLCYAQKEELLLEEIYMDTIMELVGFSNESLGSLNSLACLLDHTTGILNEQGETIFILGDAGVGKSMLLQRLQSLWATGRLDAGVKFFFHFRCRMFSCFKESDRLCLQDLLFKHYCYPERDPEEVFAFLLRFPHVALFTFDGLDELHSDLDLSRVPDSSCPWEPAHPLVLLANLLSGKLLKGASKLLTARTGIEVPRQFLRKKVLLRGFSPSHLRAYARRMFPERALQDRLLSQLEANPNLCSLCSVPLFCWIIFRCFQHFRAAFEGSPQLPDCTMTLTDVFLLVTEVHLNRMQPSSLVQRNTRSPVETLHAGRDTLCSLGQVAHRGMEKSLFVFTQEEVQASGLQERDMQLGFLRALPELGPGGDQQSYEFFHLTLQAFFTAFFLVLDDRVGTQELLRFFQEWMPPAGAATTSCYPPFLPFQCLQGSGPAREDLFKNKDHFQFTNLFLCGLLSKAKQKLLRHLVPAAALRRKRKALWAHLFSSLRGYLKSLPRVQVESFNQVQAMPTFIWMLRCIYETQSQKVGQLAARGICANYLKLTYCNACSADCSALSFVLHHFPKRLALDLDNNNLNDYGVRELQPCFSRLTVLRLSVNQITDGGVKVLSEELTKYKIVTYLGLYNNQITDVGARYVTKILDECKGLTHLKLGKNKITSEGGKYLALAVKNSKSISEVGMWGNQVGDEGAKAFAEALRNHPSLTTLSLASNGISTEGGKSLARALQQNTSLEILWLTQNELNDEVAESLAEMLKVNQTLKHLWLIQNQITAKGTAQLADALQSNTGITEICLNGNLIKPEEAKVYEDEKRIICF

[2] = biological target: T2, Interleukin-8 (Homo sapiens, UniProt P10145); assay: SAR analysis of Tumor necrosis factor alpha (TNF-alpha) induced IL-8 secretion in MCF-7/NOD1 cells - Set 2. [Related pubchem assays (depositor defined):AID1575, AID2250, AID2260]; format: functional, cell-based
T2 sequence (P10145 whole entry): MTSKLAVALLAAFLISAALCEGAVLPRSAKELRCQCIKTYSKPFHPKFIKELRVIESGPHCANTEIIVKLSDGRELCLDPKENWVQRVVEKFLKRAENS

[3] = biological target: T2, Interleukin-8; assay: SAR analysis of GM-Tri-DAP induced IL-8 secretion in MCF-7/NOD1 cells - Set 2. [Related pubchem assays (depositor defined):AID1575, AID1578, AID2333]; format: functional, cell-based
[4] = biological target: T3, Nucleotide-binding oligomerization domain-containing protein 2 (Homo sapiens, UniProt Q9HC29); assay: NOD2 inhibitors, SAR follow-up, set 2 (AID 2475); format: functional
[5] = system: HEK293; assay: SAR analysis of compounds that are cytotoxic to HEK293 - Set 2. [Related pubchem assays (depositor defined):AID1575, AID1578, AID1849, AID2001, AID2333, AID2334, AID2335, AID2337, AID2800]; format: functional, cell-based; settings: Homo sapiens
[6] = biological target: T1, Nucleotide-binding oligomerization domain-containing protein 1; assay: SAR analysis of compounds that inhibit NOD1 - Set 2. [Related pubchem assays (depositor defined):AID1566, AID1575, AID1578, AID1849, AID1852, AID2333, AID2335, AID2798]; format: functional
[7] = biological target: T1, Nucleotide-binding oligomerization domain-containing protein 1; assay: SAR analysis of compounds that inhibit NOD1 - Set 3. [Related pubchem assays (depositor defined):AID1566, AID1575, AID1578, AID1849, AID1852, AID2333, AID2335, AID2466]; format: functional
[8] = biological target: Tumor necrosis factor (Homo sapiens, UniProt P01375); assay: TNFa-triggered NF-kB activation inhibitors, SAR follow-up, cell-based, set 3 (AID 2801); format: functional
[9] = system: HEK293; assay: SAR analysis of compounds that are cytotoxic to HEK293 - Set 3. [Related pubchem assays (depositor defined):AID1575, AID1578, AID1848, AID1849, AID2001, AID2333, AID2334, AID2335, AID2337, AID2469]; format: functional, cell-based; settings: Homo sapiens
[10] = biological target: T3, Nucleotide-binding oligomerization domain-containing protein 2; assay: NOD2 signaling inhibitors, analog potency, SAR follow-up, cell-based, set 3 (AID 2799); format: functional
[11] = biological target: G-protein coupled receptor 55 (Homo sapiens, UniProt Q9Y2T6); assay: GPR55 antagonists blocking LPI-driven arrestin recruitment, primary screen, imaging, U2OS, beta-arrestin-GFP, LPI agonist (AID 2013); format: functional;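 further: antagonist potency measured as reduced agonist-driven arrestin aggregation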
[12] = biological target: G-protein coupled receptor 35 (Homo sapiens, UniProt Q9HC97); assay: GPR35 antagonists blocking zaprinast-driven arrestin recruitment, primary screen, imaging, U2OS, beta-arrestin-GFP, zaprinast agonist (AID 2058); format: functional;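 further: antagonist potency meaning inhibition of agonist-induced arrestin redistribution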
G-protein coupled receptor 35, sequence (Q9HC97 whole entry): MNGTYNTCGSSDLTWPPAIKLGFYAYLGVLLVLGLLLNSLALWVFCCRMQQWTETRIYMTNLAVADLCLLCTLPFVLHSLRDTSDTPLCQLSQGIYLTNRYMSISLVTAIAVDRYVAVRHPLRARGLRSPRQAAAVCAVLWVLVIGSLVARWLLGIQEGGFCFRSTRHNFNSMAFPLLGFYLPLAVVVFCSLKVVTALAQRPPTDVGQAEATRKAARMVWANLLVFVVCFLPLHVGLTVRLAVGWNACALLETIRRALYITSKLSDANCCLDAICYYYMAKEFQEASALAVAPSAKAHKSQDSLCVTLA

T3 sequence (Q9HC29 whole entry, the tested form may be a part): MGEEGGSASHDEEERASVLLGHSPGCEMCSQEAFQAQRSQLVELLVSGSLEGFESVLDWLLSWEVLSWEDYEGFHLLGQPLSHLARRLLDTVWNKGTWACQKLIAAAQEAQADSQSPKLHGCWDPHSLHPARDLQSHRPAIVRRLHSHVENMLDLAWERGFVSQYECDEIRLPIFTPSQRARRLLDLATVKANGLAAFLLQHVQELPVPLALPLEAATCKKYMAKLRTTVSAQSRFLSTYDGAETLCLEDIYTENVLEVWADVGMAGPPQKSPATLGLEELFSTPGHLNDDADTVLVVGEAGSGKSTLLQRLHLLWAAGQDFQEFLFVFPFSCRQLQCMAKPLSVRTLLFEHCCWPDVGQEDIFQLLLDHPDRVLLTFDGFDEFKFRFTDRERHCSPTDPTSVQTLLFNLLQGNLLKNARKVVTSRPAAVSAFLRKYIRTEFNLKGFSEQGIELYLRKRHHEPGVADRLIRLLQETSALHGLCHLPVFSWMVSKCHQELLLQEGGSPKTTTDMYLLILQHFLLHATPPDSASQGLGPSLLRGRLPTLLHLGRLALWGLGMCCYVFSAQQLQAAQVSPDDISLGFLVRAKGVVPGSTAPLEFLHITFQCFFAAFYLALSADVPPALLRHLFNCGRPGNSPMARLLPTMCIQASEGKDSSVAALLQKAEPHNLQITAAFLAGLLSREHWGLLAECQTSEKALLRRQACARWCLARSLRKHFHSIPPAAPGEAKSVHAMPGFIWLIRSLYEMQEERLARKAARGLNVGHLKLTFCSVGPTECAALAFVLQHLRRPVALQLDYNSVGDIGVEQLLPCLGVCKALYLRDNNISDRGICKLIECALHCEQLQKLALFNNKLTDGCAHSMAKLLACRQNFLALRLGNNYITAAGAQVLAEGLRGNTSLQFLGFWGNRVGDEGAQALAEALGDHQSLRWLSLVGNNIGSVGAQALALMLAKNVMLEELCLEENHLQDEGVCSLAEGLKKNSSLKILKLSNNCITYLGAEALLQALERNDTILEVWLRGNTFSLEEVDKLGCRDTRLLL
G-protein coupled receptor 55, sequence (Q9Y2T6 whole entry): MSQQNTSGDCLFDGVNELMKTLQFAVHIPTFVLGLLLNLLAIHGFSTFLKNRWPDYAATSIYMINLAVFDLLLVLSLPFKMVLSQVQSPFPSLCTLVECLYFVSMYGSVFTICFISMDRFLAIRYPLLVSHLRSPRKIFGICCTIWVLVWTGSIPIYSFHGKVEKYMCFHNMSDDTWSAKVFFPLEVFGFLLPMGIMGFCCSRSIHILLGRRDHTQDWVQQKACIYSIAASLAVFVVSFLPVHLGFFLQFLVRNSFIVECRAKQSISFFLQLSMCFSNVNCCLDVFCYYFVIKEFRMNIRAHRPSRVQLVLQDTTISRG
Tumor necrosis factor, sequence (P01375 whole entry): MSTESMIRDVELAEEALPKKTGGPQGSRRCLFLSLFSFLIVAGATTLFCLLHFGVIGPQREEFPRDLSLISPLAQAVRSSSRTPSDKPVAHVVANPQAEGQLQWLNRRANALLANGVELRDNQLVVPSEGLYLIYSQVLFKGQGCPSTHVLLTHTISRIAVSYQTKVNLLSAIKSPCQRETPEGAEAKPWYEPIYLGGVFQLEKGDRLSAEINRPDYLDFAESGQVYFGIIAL

For `C=CCn1c(SCCCc2ccccc2)nc2c1c(=O)[nH]c(=O)n2C`, the IC50 [1] was > 25 µM (inactive), the IC50 [2] was > 25 µM (inactive) and the IC50 [3] was > 25 µM (inactive). For the same compound, the IC50 [4] was 14.8 µM (active), the IC50 [5] was > 20 µM (inactive) and the IC50 [6] was 9.33 µM (active). For the same compound, the IC50 [7] was > 20 µM (inactive), the IC50 [8] was > 20 µM (inactive) and the IC50 [9] was > 20 µM (inactive). The IC50 [10] was > 20 µM (inactive).

`CCOC(=O)c1c(NC(=O)C2=C(C)N=C(S)NC2c2ccc(C)cc2)sc(C)c1C` (configuration not stated) was tested, and the IC50 [11] was < 0.5 µM (active).

With `Cc1nnc(NC(=O)c2sc3nc(-c4cccs4)cc(C(F)(F)F)c3c2N)s1` the IC50 [12] was 0.61 µM (active).
